From ChEMBL document CHEMBL3886390, “Triazolyl PDE10 inhibitors” (2015) come the findings set out here.

This test has as its target cAMP and cAMP-inhibited cGMP 3',5'-cyclic phosphodiesterase 10A (Homo sapiens, UniProt Q9Y233). As to the kind of experiment: Fluorescence Polarization Assay: In a typical experiment the PDE10 inhibitory activity of the compounds of the present invention was determined in accordance with the following experimental method. PDE10A2 was amplified from human fetal brain cDNA (Clontech, Mountain View, Calif.) using a forward primer corresponding to nucleotides 56-77 of human PDE10A2 (Accession No. AF127480, Genbank Identifier 4894716), containing a Kozak consensus sequence, and a reverse primer corresponding to nucleotides 2406-2413 of human PDE10A2 (Accession No. AF127480, Genbank Identifier 4894716). Amplification with Easy-A polymerase (Stratagene, La Jolla, Calif.) was 95° C. for 2 minutes followed by thirty three cycles of 95° C. for 40 seconds, 55° C. for 30 seconds, and 72° C. for 2 minutes 48 seconds. Final extension was 72° C. for 7 minutes. The PCR product was TA cloned into pcDNA3.2-TOPO (Invitrogen, Carlsbad, Calif.) according to standard protocol. AD293 cells with 70-80% confluency were transiently transfected with human PDE10A2.

Chain of cAMP and cAMP-inhibited cGMP 3',5'-cyclic phosphodiesterase 10A (Q9Y233 whole entry): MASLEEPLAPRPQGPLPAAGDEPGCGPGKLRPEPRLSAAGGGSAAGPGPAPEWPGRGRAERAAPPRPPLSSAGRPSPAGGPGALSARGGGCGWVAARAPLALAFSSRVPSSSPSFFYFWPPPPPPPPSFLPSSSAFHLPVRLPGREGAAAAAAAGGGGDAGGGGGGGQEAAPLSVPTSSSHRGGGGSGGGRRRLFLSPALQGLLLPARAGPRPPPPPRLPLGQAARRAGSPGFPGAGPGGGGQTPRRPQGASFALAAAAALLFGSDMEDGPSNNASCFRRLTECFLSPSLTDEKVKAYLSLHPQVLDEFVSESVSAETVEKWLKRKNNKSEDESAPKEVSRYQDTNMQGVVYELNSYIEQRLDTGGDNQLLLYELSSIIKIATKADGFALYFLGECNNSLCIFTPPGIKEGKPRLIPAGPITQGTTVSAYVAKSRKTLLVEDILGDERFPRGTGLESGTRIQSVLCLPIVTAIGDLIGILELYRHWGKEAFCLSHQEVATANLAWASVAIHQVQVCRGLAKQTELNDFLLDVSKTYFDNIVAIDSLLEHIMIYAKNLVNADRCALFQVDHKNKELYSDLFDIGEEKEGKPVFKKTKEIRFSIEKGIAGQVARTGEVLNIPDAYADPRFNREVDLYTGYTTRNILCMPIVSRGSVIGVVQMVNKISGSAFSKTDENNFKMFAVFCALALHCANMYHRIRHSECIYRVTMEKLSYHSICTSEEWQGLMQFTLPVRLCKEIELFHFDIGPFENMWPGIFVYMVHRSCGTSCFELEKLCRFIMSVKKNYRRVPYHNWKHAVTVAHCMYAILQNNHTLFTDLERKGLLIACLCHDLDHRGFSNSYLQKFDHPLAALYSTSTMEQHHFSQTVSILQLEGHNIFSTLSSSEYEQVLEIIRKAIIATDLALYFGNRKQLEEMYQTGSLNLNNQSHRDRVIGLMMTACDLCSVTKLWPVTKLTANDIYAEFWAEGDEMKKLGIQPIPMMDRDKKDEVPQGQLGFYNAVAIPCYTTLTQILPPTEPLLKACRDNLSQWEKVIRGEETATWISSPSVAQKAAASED

`Cc1nc(C2CC2c2nc3ccc(F)cc3[nH]2)cc(-n2nc(C)nc2C)n1` (configuration not stated) registered a Ki of 14.2 nM.

`COc1ccc(COc2cc(-n3nc(C)nc3Cc3ccc(OC)c(OC)c3)nc(C)n2)nc1` gave a Ki of 3.3 nM.
